Results as given in ChEMBL document CHEMBL1201862, “PubChem BioAssay data set” (2004).
Calls of active or inactive are those of the source.

Legend:
[1] = molecular target: T1, Insulin-degrading enzyme (Homo sapiens, UniProt P14735); experiment: recombinant IDE activation, cell-free – biochemical, fluorescence polarization, counter-screen for IDE activator project, dose response (AID 588681)
[2] = system: HEK293; experiment: membrane integrity loss in HEK cells – cell-based, fluorescence, cytotoxicity control for IDE activator project, dose response (AID 588440); format: functional; conditions: Homo sapiens;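 note: cytotoxicity by LDH release measuring loss of membrane integrity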
[3] = system: HEK293; experiment: optical interference in Abeta FP readout, dose response, artefact control for IDE activator project, biochemical, fluorescence polarization (AID 588442); format: functional, cell-based; conditions: Homo sapiens
[4] = molecular target: T1, Insulin-degrading enzyme; experiment: cellular IDE activation of Abeta substrate cleavage – fluorescence polarization, HEK cells, dose response (AID 588439); format: functional, cell-based
[5] = system: HEK293; experiment: SAR Analysis of small molecule inhibitors of B-cell specific antigen receptor-induced NF-kB activation in a HEK-293T cell line using a luminescence assay - Set 2. [Related pubchem assays (depositor defined):AID435022, AID435025, AID489021]; format: functional, cell-based; conditions: Homo sapiens
[6] = system: HEK293; experiment: HEK293T cell viability loss, resazurin readout – resazurin fluorescence, cytotoxicity control for NF-kB activator project, SAR follow-up (AID 493251); format: functional, cell-based; conditions: Homo sapiens
[7] = system: Jurkat; experiment: SAR Analysis of small molecule inhibitors of […] specific antigen receptor-induced NF-kB activation in a Jurkat cell line using a luminescence assay - Set 3. [Related pubchem assays (depositor defined):AID435022, AID435025, AID465]; format: functional, cell-based; conditions: Homo sapiens
[8] = NIH-3T3 fibroblast cytotoxicity, dose response, cytotoxicity control, cell-based, fluorescence, Alamar Blue, secondary assay (AID 2327); format: functional;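 note: NIH-3T3 mouse fibroblasts cultured with fluconazole at 8 µg/mL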
[9] = molecular target: ATP-dependent molecular chaperone HSP82 (Candida albicans (strain WO-1) (Yeast), UniProt C4YTQ8); experiment: steroid-induced GRE reporter decrease in yeast – S. cerevisiae, luminescence, Hsp90 inhibitor project, dose response (AID 2400); format: functional, cell-based;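 note: beta-galactosidase luminescence from glucocorticoid response element reporter as proxy for Hsp90 function; inhibitor potency where signal loss means Hsp90 inhibition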
[10] = system: Vero; experiment: viability of Vero cells under compound – cytotoxicity control for flavivirus capping enzyme inhibitors (AID 588742); format: functional; conditions: Chlorocebus sabaeus
[11] = molecular target: T2, SUMO-activating enzyme (Homo sapiens, UniProt Q9UBT2); experiment: blockers of SAE1/SAE2–UBC9 SUMO transfer – biochemical, HTRF, uHTS, primary screen (AID 2006); format: protein-complex assay
[12] = fluconazole-exposed Candida albicans growth modulators – fluorescence, retest, confirmation (AID 2467); format: functional, cell-based
[13] = molecular target: Serine/threonine-protein phosphatase (Candida dubliniensis (strain CD36 / CBS 7987 / NCPF 3949 / NRRLY-17841) (Yeast), UniProt B9W6M3); experiment: blockers of CaCl2-induced CDRE-lacZ signaling – S. cerevisiae, luminescence, secondary, dose response (AID 2388); format: functional, cell-based;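 note: yeast reporter cells carrying a calcineurin-responsive lacZ construct stimulated with calcium chloride; luminescent beta-galactosidase reporter signal in whole cells rather than isolated phosphatase activity; potency for inhibition where a drop in reporter signal means calcineurin blockade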
[14] = molecular target: T2, SUMO-activating enzyme; experiment: blockers of UBC9-mediated SUMO conjugation – biochemical, AlphaScreen, SUMOylation inhibitor project, confirmation (AID 2018); format: functional
[15] = molecular target: T3, Histone-lysine N-methyltransferase NSD2 (Homo sapiens, UniProt O96028); format: biochemical
T3 sequence (O96028 whole entry): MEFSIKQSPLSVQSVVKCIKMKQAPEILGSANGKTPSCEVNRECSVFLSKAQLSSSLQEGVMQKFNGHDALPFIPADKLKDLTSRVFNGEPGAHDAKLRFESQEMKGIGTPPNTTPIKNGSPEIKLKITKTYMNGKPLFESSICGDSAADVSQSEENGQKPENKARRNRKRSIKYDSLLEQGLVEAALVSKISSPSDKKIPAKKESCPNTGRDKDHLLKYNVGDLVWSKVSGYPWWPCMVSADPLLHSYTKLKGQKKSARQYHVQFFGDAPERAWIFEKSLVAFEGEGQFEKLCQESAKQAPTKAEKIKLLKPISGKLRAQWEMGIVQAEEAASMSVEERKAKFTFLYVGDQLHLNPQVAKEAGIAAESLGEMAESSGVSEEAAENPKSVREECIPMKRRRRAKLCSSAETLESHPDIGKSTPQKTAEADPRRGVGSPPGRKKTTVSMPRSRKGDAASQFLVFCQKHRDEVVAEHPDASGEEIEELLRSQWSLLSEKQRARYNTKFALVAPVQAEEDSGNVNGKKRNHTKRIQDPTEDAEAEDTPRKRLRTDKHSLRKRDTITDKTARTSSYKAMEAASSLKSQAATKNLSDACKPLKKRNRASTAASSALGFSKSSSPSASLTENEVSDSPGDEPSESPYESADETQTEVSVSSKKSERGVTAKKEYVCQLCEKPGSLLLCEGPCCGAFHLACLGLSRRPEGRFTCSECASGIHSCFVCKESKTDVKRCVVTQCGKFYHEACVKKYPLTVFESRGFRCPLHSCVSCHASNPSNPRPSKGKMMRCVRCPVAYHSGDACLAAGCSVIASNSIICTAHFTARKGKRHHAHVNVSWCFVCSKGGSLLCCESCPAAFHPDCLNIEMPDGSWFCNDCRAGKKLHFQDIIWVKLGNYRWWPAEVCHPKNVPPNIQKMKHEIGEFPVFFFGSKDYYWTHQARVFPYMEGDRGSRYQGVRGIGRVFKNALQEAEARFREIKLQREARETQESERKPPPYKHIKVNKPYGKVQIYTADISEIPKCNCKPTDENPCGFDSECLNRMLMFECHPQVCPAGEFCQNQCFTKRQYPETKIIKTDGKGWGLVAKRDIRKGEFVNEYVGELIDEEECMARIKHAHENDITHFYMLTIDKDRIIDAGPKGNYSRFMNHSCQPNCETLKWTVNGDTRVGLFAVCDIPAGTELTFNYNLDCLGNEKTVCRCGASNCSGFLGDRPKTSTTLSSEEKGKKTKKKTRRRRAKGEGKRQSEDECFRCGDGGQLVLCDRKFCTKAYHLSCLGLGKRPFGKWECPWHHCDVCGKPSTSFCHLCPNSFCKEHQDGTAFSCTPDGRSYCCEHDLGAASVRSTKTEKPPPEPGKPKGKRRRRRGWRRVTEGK

[16] = molecular target: T4, Mannose-6-phosphate isomerase (Homo sapiens, UniProt P34949); experiment: MPI inhibition at elevated mannose 6-phosphate – biochemical, fluorescence intensity, high mannose 6-phosphate, primary screen (AID 1220)
T4 sequence (P34949 whole entry): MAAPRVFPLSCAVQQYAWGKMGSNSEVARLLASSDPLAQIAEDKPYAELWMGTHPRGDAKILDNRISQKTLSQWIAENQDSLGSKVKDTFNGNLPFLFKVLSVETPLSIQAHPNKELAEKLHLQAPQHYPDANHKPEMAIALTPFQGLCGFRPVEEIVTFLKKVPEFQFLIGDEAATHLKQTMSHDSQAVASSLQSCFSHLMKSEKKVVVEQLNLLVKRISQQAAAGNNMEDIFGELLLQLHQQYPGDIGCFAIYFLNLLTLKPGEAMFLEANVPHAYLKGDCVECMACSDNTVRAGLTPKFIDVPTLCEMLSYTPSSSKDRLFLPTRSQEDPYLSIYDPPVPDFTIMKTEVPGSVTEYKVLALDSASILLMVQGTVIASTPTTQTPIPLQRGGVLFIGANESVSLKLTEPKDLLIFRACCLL

[17] = system: HeLa; experiment: toxicity to human HeLa cells – cell-based, 48 h, plate reader, cherry-picks, cytotoxicity control, dose response (AID 504942); format: functional
[18] = molecular target: T5, Acyl-homoserine lactone acylase PvdQ (Pseudomonas aeruginosa (strain LESB58), UniProt Q9I194); experiment: PvdQ acylase enzyme activity blockers – biochemical, fluorescence, plate reader and imaging, cherry-picks, dose response (AID 493231)
T5 sequence (Q9I194 whole entry): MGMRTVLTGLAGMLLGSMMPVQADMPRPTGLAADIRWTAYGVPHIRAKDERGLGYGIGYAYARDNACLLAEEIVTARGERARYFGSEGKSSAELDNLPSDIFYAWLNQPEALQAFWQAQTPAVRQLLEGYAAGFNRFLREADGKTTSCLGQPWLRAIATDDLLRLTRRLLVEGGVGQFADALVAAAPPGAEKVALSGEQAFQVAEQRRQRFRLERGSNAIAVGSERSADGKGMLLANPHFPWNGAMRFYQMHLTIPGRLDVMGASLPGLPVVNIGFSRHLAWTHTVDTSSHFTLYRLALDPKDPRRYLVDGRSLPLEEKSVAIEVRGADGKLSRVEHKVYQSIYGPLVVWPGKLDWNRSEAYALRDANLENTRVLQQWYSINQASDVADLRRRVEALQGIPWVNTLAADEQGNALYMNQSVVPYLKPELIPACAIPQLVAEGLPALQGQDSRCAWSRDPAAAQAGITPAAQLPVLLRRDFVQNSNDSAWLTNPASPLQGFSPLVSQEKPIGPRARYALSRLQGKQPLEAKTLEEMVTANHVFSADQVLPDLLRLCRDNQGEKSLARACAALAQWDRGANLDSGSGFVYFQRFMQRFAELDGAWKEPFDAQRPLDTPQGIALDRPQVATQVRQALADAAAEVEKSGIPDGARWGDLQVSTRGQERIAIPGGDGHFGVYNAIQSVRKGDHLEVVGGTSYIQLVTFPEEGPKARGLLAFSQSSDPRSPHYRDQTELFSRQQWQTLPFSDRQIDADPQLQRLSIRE

[19] = molecular target: Beta Lactamase (Pseudomonas aeruginosa, UniProt Q932Y6); experiment: BLA reporter interference, concentration series – BLA reporter cells, FRET fluorescence, artefact control for TLR9-MyD88 binding inhibitor project, dose response (AID 588341); format: cell-based;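 note: cell based assay in CHO-K1 cells stably expressing beta-lactamase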
[20] = system: CHO; experiment: CHO cell viability loss, potency – luminescence, cytotoxicity control for TLR9-MyD88 binding inhibitor project, dose response (AID 588339); format: functional, cell-based, hamster; conditions: Cricetulus griseus;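 note: CHO cells stably coexpressing TLR9 and MyD88 fusions from primary screen; compound exposure lasted 48 hours before viability readout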
[21] = molecular target: T6, Caspase-7 (Homo sapiens, UniProt P55210); experiment: potency of procaspase-7 enzyme activation – biochemical, absorbance, human, dual procaspase-3/-7 activator project, dose response (AID 504330)
T6 sequence (P55210 whole entry): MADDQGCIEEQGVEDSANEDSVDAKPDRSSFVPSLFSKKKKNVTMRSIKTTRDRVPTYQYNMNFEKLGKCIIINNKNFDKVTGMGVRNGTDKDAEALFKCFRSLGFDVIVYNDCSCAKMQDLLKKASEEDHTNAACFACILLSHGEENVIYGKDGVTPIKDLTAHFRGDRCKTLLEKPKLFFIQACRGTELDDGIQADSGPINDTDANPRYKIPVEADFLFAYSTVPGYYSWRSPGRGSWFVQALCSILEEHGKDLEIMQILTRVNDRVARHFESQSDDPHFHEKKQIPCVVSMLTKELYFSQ

[22] = molecular target: T7, Caspase-3 (Homo sapiens, UniProt P42574); experiment: activators of human procaspase-3 D3A mutant – biochemical, absorbance, PC-3 D3A mutant, counter-screen for dual procaspase-3/7 activator project, dose response (AID 504328)
T7 sequence (P42574 whole entry): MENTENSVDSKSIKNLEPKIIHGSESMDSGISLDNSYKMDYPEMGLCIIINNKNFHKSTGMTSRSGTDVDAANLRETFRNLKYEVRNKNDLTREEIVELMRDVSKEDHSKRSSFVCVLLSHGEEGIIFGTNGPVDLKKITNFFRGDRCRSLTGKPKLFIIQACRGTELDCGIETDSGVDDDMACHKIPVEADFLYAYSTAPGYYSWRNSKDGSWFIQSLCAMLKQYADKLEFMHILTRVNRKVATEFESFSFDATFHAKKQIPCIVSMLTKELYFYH

[23] = molecular target: Hexokinase-1 (Homo sapiens, UniProt P19367); experiment: SAR analysis of small molecule inhibitors of hexokinase domain containing I (HKDC1) in the hexokinase 1 selectivity assay. [Related pubchem assays (depositor defined):AID493160, AID493190]; format: functional
[24] = molecular target: Hexokinase HKDC1 (Homo sapiens, UniProt Q2TB90); experiment: SAR analysis of small molecule inhibitors of hexokinase domain containing I (HKDC1). [Related pubchem assays (depositor defined):AID493160, AID493190]; format: functional
Chain of Hexokinase HKDC1 (Q2TB90 whole entry, the tested form may be a part): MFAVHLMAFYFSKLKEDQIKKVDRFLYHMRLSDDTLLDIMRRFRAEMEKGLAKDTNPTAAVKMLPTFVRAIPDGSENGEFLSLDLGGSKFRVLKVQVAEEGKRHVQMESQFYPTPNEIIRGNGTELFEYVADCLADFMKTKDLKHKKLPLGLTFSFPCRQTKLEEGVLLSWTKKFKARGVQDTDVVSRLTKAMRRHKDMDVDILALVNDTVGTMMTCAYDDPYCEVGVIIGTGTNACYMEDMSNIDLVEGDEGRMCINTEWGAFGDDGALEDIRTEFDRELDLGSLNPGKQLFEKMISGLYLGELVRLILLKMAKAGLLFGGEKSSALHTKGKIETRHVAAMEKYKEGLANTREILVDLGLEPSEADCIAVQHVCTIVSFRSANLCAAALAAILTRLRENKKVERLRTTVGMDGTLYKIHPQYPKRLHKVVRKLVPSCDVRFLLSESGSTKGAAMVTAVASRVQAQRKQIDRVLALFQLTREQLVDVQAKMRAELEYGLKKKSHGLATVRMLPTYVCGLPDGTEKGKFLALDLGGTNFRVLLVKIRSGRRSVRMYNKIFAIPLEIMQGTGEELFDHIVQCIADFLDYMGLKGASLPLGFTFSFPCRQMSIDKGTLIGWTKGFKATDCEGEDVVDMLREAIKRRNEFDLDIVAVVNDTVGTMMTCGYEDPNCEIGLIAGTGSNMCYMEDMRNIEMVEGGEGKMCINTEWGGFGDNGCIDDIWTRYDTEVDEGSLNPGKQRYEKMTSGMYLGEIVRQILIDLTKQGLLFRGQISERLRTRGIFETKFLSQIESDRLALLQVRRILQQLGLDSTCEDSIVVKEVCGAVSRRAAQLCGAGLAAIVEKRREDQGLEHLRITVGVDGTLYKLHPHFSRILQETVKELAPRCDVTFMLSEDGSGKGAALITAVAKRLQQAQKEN

T2 sequence (Q9UBE0 whole entry): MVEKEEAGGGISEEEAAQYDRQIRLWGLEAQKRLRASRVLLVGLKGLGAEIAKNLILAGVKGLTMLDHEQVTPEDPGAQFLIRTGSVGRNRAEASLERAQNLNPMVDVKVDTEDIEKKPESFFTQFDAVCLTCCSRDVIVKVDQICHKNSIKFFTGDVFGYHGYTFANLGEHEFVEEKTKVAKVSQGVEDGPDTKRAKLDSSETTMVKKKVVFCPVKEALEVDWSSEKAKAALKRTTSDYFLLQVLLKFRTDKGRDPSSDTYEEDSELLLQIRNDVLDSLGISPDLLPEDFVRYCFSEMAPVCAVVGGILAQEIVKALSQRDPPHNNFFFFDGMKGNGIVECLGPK
T2 sequence (Q9UBT2 whole entry): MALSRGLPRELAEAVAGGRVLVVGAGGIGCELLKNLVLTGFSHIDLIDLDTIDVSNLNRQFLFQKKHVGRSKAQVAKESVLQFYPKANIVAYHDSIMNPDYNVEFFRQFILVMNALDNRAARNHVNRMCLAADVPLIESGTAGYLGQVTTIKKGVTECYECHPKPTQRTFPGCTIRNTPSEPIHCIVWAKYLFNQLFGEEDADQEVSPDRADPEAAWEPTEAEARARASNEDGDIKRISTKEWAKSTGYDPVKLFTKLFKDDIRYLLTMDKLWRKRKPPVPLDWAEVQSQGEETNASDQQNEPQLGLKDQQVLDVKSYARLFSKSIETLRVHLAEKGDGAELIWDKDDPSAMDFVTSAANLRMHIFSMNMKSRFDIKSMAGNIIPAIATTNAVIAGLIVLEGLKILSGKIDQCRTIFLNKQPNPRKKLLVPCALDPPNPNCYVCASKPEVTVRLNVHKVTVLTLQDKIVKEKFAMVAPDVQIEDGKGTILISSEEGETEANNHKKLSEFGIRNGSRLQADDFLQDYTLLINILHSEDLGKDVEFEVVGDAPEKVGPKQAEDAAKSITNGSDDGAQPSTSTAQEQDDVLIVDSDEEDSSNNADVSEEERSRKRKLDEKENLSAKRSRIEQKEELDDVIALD
T1 sequence (P14735 whole entry): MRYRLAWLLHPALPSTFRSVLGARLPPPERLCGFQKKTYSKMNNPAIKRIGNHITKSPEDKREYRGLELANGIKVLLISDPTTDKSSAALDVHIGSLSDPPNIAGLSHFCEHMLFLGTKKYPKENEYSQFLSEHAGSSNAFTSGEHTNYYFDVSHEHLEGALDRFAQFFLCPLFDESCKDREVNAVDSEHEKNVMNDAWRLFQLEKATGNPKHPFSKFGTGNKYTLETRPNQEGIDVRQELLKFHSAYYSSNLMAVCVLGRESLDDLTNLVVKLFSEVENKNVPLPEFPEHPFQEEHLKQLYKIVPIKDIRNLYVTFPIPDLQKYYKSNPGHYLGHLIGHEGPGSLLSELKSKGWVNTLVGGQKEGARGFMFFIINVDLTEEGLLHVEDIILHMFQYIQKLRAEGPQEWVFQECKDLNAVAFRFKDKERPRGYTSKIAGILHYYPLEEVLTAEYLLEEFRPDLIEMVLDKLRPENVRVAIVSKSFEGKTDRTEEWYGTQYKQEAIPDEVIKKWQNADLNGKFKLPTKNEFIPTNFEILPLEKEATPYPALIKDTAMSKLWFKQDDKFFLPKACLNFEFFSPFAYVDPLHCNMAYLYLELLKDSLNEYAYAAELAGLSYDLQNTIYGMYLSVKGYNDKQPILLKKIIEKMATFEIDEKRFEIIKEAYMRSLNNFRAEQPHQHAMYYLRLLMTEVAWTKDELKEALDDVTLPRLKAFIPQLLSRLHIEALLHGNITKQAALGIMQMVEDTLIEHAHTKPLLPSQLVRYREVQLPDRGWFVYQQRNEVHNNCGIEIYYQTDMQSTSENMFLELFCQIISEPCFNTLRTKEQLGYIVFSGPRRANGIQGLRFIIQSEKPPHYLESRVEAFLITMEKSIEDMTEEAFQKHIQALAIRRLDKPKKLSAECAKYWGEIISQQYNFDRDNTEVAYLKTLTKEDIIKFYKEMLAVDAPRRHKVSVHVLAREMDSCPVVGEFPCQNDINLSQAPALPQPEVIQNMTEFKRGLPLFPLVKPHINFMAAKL
Chain of Beta Lactamase (Q932Y6 whole entry, the tested form may be a part): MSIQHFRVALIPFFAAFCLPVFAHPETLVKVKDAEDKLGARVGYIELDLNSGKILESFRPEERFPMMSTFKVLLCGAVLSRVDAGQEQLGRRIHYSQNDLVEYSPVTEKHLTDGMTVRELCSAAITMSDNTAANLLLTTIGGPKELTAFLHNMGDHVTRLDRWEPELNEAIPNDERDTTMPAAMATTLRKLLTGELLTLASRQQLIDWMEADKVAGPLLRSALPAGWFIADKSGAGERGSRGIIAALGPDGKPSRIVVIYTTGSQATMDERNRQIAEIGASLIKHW
Chain of Hexokinase-1 (P19367 whole entry, the tested form may be a part): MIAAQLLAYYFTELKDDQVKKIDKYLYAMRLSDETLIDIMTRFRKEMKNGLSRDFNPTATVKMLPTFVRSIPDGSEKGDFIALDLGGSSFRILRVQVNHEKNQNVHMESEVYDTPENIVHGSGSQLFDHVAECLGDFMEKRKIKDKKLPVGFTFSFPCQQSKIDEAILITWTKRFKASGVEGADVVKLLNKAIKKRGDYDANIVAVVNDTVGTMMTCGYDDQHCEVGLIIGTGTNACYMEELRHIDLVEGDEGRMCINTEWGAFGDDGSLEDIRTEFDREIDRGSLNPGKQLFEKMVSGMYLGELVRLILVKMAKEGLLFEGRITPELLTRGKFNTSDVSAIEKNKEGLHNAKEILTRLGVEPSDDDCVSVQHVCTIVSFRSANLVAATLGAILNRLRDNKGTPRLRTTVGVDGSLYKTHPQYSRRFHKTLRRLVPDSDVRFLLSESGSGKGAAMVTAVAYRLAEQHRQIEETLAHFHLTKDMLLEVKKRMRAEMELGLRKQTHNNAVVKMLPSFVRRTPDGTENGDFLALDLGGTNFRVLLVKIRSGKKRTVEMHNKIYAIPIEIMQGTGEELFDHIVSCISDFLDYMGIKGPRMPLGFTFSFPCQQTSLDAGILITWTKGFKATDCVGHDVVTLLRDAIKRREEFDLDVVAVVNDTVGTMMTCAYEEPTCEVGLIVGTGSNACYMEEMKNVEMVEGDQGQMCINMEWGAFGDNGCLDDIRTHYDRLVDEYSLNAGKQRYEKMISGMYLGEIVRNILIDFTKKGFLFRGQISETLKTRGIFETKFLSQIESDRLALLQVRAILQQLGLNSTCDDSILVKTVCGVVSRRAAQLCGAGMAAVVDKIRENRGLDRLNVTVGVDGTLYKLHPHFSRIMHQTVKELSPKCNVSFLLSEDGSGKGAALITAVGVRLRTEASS
Chain of Serine/threonine-protein phosphatase (B9W6M3 whole entry): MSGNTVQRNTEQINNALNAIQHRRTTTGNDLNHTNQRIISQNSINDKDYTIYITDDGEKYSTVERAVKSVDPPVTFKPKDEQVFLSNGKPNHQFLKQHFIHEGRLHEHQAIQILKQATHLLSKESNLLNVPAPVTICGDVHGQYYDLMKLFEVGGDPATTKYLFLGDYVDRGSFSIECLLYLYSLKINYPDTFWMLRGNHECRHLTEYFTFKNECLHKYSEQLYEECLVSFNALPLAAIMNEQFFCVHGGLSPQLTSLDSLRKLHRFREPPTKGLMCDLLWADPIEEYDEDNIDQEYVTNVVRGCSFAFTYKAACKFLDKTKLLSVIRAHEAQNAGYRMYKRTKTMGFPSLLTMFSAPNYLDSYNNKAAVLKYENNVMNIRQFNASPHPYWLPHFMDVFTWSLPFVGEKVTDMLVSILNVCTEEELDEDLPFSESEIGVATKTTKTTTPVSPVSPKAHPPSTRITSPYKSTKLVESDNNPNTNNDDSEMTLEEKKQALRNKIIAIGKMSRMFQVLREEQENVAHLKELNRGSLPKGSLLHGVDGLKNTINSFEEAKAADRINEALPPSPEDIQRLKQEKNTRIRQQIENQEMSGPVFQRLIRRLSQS

## Cc1ccc(S(=O)(=O)/N=C/c2cc(Br)ccc2O)cc1
[1]
  EC50: > 54.7 µM (inactive)
[2]
  IC50: > 89.1 µM (inactive)
[3]
  EC50: > 54.7 µM (inactive)
[4]
  EC50: > 54.7 µM (inactive)

## CCOc1ccc(-c2nc(CSCC(=O)NCC3CCCO3)c(C)o2)cc1 (centres undefined)
[5]
  IC50: 67.7 µM (inactive)
[6]
  IC50: > 80 µM (inactive)
[7]
  IC50: > 80 µM (inactive)

## CN(C)c1cc(N/N=C/c2ccc(Cl)cc2)nc(N(C)C)n1
[8]
  EC50: > 160 µM (inactive)
[9]
  EC50: > 160 µM (inactive)
[10]
  CC50: > 40 µM (active)
[11]
  IC50: 14.2 µM (active)
[12]
  EC50: 0.401 µM (active)
[13]
  EC50: > 180 µM (inactive)
[14]
  IC50: 1 µM (active)
[15]
  AC50: 6.18 µM (active)
[16]
  IC50: > 50 µM (not active)

## COc1ccc(-c2cc3ncccc3cn2)cc1
[17]
  AC50: 72.9 µM (active)
[18]
  AC50: 7.13 µM (active)

## COc1ccccc1N1C(=O)C2C(C(=O)c3ccccc3)=NN(c3ccccc3)C2C1=O (centres undefined)
[19]
  IC50: 9.37 µM (active)
[20]
  IC50: > 49.8 µM (inactive)
[21]
  EC50: > 85.3 µM (inactive)
[22]
  EC50: > 85.3 µM (inactive)

## Cc1ccc(S(=O)(=O)Nc2cc(SCCC(=O)O)c(O)c3ccccc23)cc1
[23]
  IC50: > 80 µM (inactive)
[24]
  IC50: 10 µM (active)
